Experimental data taken from patent publication US10899793B2, “Melanocortin ligands and methods of use thereof” (priority 2016, dated 2021).
Square brackets hold non-standard residues; d marks the D form. Peptide text beside a SMILES is read from it. Bip = N[C@@H](Cc1ccc(-c2ccccc2)cc1)C(=O)O; dPhe(4-I) = N[C@H](Cc1ccc(I)cc1)C(=O)O; 2Nal = N[C@@H](Cc1ccc2ccccc2c1)C(=O)O; d2Nal = N[C@H](Cc1ccc2ccccc2c1)C(=O)O; Bta = N[C@@H](Cc1csc2ccccc12)C(=O)O; Tic = O=C(O)[C@@H]1Cc2ccccc2CN1; Nle = CCCC[C@H](N)C(=O)O

Tests used:
mMC3R [1] = biological target: T1, mMC3R (Mus musculus, UniProt P33033); assay: AlphaScreen cAMP agonist assay at mMC3R; details: for mMC3R Agonist, percent of the NDP-MSH maximal positive control: Table 1, @ 100 μM
mMC4R [2] = biological target: T2, mMC4R (Mus musculus, UniProt P56450); assay: AlphaScreen cAMP agonist assay at mMC4R; details: for activation at 100 µM: read-out: mMC4R Agonist, percent of the NDP-MSH maximal positive control
mMC1R = mMC1R (Mus musculus, UniProt Q01727); assay: AlphaScreen cAMP agonist assay at mMC1R; details: for mMC1R percent of the NDP-MSH maximal positive control: Table 2, @ 100 μM
mMC5R = mMC5R (Mus musculus, UniProt P41149); assay: AlphaScreen cAMP agonist assay at mMC5R; details: for activation at 100 µM: read-out: percent of the NDP-MSH maximal positive control, Table 2
mMC4R [3] = biological target: T2, mMC4R; details: for mMC4R Antagonist pA2 ± SEM: Table 1, pA2 = -Log(Ki)
mMC3R [4] = biological target: T1, mMC3R; details: Schild analysis; for mMC3R Antagonist pA2 ± SEM: Table 1, pA2 = -Log(Ki), Full Agonist = full dose-response, No Activity = no shift in EC50

Chain of mMC1R (Q01727 whole entry): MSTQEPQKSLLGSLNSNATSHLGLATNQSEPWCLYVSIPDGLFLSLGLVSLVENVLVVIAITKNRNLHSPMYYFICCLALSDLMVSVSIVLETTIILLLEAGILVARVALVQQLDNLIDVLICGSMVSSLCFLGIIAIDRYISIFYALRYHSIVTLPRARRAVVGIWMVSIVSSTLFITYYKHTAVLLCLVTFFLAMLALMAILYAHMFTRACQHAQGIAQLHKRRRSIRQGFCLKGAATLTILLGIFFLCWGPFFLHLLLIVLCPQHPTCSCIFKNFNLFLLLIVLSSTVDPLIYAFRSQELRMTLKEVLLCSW
T2 sequence (P56450 whole entry): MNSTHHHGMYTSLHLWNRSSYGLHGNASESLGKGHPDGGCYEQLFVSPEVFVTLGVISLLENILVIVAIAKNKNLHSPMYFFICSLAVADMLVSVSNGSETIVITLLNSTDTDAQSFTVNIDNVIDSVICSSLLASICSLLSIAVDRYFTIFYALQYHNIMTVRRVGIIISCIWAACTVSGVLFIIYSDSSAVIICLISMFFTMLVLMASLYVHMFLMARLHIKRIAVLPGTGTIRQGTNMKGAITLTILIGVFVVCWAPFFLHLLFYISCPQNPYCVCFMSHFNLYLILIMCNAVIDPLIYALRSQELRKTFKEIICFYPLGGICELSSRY
T1 sequence (P33033 whole entry): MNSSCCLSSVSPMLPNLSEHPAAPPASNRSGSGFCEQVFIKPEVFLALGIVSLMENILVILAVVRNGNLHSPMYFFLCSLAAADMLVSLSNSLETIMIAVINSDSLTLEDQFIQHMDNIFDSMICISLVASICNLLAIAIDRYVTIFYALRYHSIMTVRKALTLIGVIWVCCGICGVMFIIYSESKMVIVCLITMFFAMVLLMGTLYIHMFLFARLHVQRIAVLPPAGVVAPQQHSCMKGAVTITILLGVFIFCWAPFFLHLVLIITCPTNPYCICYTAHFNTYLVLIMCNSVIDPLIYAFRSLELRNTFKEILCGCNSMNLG
Chain of mMC5R (P41149 whole entry): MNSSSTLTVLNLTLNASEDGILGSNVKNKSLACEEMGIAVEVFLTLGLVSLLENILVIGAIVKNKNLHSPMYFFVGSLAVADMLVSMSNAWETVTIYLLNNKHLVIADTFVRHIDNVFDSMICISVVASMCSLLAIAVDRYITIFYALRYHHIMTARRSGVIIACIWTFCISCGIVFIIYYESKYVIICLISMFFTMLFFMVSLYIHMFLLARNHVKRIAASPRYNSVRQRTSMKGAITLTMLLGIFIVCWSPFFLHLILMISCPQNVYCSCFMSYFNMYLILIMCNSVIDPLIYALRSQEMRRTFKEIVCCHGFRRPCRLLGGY

Molecule | mMC3R Agonist, percent of the NDP-MSH maximal positive control (mMC3R [1]) | activation at 100 µM (mMC4R [2]) | mMC1R percent of the NDP-MSH maximal positive control (mMC1R) | mMC3R Antagonist pA2 ± SEM (mMC3R [4]) | mMC4R Antagonist pA2 ± SEM (mMC4R [3]; Schild analysis) | activation at 100 µM (mMC5R) | further results
CCCC[C@H](NC(=O)[C@H](CO)NC(=O)[C@H](Cc1ccc(O)cc1)NC(=O)[C@H](CO)NC(C)=O)C(=O)N[C@@H](CCC(=O)O)C(=O)N[C@@H](Cc1c[nH]cn1)C(=O)N[C@@H](CCCNC(=N)N)C(=O)N[C@H](Cc1ccccc1)C(=O)N[C@@H](Cc1c[nH]c2ccccc12)C(=O)NCC(=O)N[C@@H](CCCCN)C(=O)N1CCC[C@H]1C(=O)N[C@H](C(N)=O)C(C)C [SKY2-125-3, Ac-Ser-Tyr-Ser-Nle-Glu-His-Arg-DPhe-Trp-Gly-Lys-Pro-Val-NH2] (Ac-SYS[Nle]EHR[dF]WGKPV-NH2) | – | – | – | – | – | – | EC50 (mMC3R [1]): 1.8 µM; EC50 (mMC4R [2]): 9.5 µM; EC50 (mMC1R): 0.38 ± 0.07 µM; EC50 (mMC5R): 1.6 µM
CC(=O)N[C@@H](CCCNC(=N)N)C(=O)N[C@@H](CCCNC(=N)N)C(=O)N[C@H](Cc1ccc(I)cc1)C(=O)N[C@@H](Cc1ccc(-c2ccccc2)cc1)C(N)=O [SKY4-48-2, Ac-Arg-Arg-(pI)DPhe-Bip-NH2] | 45% @ 100 μM | 32% | 44% @ 100 μM | – | – | – | antagonist pA2 at the mMC4R (mMC4R [3]): 5.8
CC(=O)N[C@@H](Cc1c[nH]cn1)C(=O)N[C@@H](CCCNC(=N)N)C(=O)N[C@H](Cc1ccc(I)cc1)C(=O)N[C@@H](Cc1ccc(-c2ccccc2)cc1)C(N)=O [SKY4-48-3, Ac-His-Arg-(pI)DPhe-Bip-NH2] (Ac-HR[dPhe(4-I)][Bip]-NH2) | 53% @ 100 μM | 43% | – | No Activity | No Activity | – | –
CC(=O)N[C@@H](Cc1csc2ccccc12)C(=O)N[C@@H](CCCNC(=N)N)C(=O)N[C@H](Cc1ccc(I)cc1)C(=O)N[C@@H](Cc1ccc(-c2ccccc2)cc1)C(N)=O [SKY4-48-5, Ac-3Bal-Arg-(pI)DPhe-Bip-NH2] (Ac-[Bta]R[dPhe(4-I)][Bip]-NH2) | 51% @ 100 μM | 35% | – | No Activity | No Activity | – | –
CC(=O)N[C@@H](Cc1ccccc1)C(=O)N[C@@H](CCCNC(=N)N)C(=O)N[C@H](Cc1ccc(I)cc1)C(=O)N[C@@H](Cc1ccc(-c2ccccc2)cc1)C(N)=O [SKY4-48-7, Ac-Phe-Arg-(pI)DPhe-Bip-NH2] (Ac-FR[dPhe(4-I)][Bip]-NH2) | 30% @ 100 μM | – | 67% @ 100 μM | No Activity | No Activity | – | –
CC(=O)N1Cc2ccccc2C[C@H]1C(=O)N[C@@H](CCCNC(=N)N)C(=O)N[C@H](Cc1ccc(I)cc1)C(=O)N[C@@H](Cc1csc2ccccc12)C(N)=O [SKY4-48-14, Ac-Tic-Arg-(pI)DPhe-3Bal-NH2] (Ac-[Tic]R[dPhe(4-I)][Bta]-NH2) | – | – | 38% @ 100 μM | Full Agonist | – | – | –
CC(=O)N[C@@H](Cc1ccc(-c2ccccc2)cc1)C(=O)N[C@@H](CCCNC(=N)N)C(=O)N[C@H](Cc1ccc(I)cc1)C(=O)N[C@@H](Cc1ccc2ccccc2c1)C(N)=O [SKY4-48-36, Ac-Bip-Arg-(pI)DPhe-Nal(2′)-NH2] (Ac-[Bip]R[dPhe(4-I)][2Nal]-NH2) | – | – | 23% @ 100 μM | No Activity | No Activity | 21% | –
CC(=O)N1Cc2ccccc2C[C@H]1C(=O)N[C@@H](CCCNC(=N)N)C(=O)N[C@H](Cc1ccc(I)cc1)C(=O)N[C@@H](Cc1ccc2ccccc2c1)C(N)=O [SKY4-48-38, Ac-Tic-Arg-(pI)DPhe-Nal(2′)-NH2] (Ac-[Tic]R[dPhe(4-I)][2Nal]-NH2) | – | – | 66% @ 100 μM | No Activity | – | 48% | –
CC(=O)N[C@@H](Cc1c[nH]cn1)C(=O)N[C@@H](CCCNC(=N)N)C(=O)N[C@H](Cc1ccc(I)cc1)C(=O)N[C@H](Cc1ccc2ccccc2c1)C(N)=O [SKY4-48-43, Ac-His-Arg-(pI)DPhe-DNal(2′)-NH2] (Ac-HR[dPhe(4-I)][d2Nal]-NH2) | – | 50% | – | Full Agonist | – | 47% | –
CC(=O)N1Cc2ccccc2C[C@H]1C(=O)N[C@@H](CCCNC(=N)N)C(=O)N[C@H](Cc1ccc(I)cc1)C(=O)N[C@H](Cc1ccc2ccccc2c1)C(N)=O [SKY4-48-46, Ac-Tic-Arg-(pI)DPhe-DNal(2′)-NH2] (Ac-[Tic]R[dPhe(4-I)][d2Nal]-NH2) | 42% @ 100 μM | 33% | – | No Activity | No Activity | 74% | –
CC(=O)N[C@@H](Cc1ccc2ccccc2c1)C(=O)N[C@@H](CCCNC(=N)N)C(=O)N[C@H](Cc1ccc(I)cc1)C(=O)N[C@H](Cc1ccc2ccccc2c1)C(N)=O [SKY4-48-48, Ac-Nal(2′)-Arg-(pI)DPhe-DNal(2′)-NH2] (Ac-[2Nal]R[dPhe(4-I)][d2Nal]-NH2) | 31% @ 100 μM | – | 53% @ 100 μM | No Activity | No Activity | 40% | –
CC(=O)N[C@H](Cc1ccc2ccccc2c1)C(=O)N[C@@H](CCCNC(=N)N)C(=O)N[C@H](Cc1ccc(I)cc1)C(=O)N[C@H](Cc1ccc2ccccc2c1)C(N)=O [SKY4-48-49, Ac-DNal(2′)-Arg-(pI)DPhe-DNal(2′)-NH2] (Ac-[d2Nal]R[dPhe(4-I)][d2Nal]-NH2) | 40% @ 100 μM | 37% | – | – | – | 43% | –
CC(=O)N[C@H](Cc1c[nH]c2ccccc12)C(=O)N[C@H](CCCNC(=N)N)C(=O)N[C@@H](Cc1ccccc1)C(=O)N[C@H](Cc1c[nH]cn1)C(N)=O [SKY5-121, Ac-DTrp-DArg-Phe-DHis-NH2] (Ac-[dW][dR]F[dH]-NH2) | – | – | – | – | – | – | mMC3R pA2 (mMC3R [4]; Table 5): pA2 = No Activity; mMC4R pA2 (mMC4R [3]; Table 5, Schild analysis): pA2 = No Activity; EC50 (mMC3R [1]): > 100 µM; EC50 (mMC4R [2]): > 100 µM; EC50 (mMC1R): > 100 µM; mMC5R percent of the NDP-MSH maximal positive control (mMC5R; Table 5, @ 100 μM): 29% @ 100 μM
CC(=O)N1Cc2ccccc2C[C@H]1C(=O)N[C@@H](CCCNC(=N)N)C(=O)N[C@H](Cc1ccc(I)cc1)C(=O)N[C@@H](Cc1ccc(-c2ccccc2)cc1)C(N)=O [SKY5-146-1, Ac-Tic-Arg-(pI)DPhe-Bip-NH2] (Ac-[Tic]R[dPhe(4-I)][Bip]-NH2) | – | – | 39% @ 100 μM | No Activity | No Activity | – | –
CC(=O)N[C@H](Cc1ccc2ccccc2c1)C(=O)N[C@@H](CCCNC(=N)N)C(=O)N[C@H](Cc1ccc(I)cc1)C(=O)N[C@@H](Cc1ccc2ccccc2c1)C(N)=O [SKY5-146-5, Ac-DNal(2′)-Arg-(pI)DPhe-Nal(2′)-NH2] (Ac-[d2Nal]R[dPhe(4-I)][2Nal]-NH2) | 43% @ 100 μM | 39% | – | – | – | 40% | –
Ac-SYSMEHRFWGKPV-NH2 [SKY2-125-5] | – | – | – | – | – | – | EC50 (mMC3R [1]): 5.8 µM; fold decreased potency at the mMC3R relative to α-MSH (mMC3R [1]; Arg-Phe reverse analog vs parent): 45,000 fold; EC50 (mMC4R [2]): 44 µM; EC50 (mMC1R): 3 µM; EC50 (mMC5R): 2.6 µM
